According to patent US20060160811A1, “Aryl-condensed 3-arylpridine compounds and use thereof for controlling pathogenic fungi” (priority 2003, published 2006):

Tested on: Leptosphaeria nodorum
Assay: Activity against leaf blotch on wheat caused by Leptosphaeria nodorum, protective application
Type: in vivo
Settings: protective spray, wheat cultivar Kanzler, inoculated next day, visual rating after 8 days, untreated control 80%
Method: The active compounds were prepared as a stock solution with 0.25% by weight of active compound in acetone or DMSO (dimethyl sulfoxide). 1% by weight of the emulsifier Uniperol® EL (wetting agent having emulsifying and dispersing action based on ethoxylated alkylphenols) was added to this solution, and the solution was diluted with water to the desired concentration.
Activity against leaf blotch on wheat caused by Leptosphaeria nodorum, protective application.
Pots with wheat plants of the cultivar “Kanzler” were sprayed to runoff point with an aqueous suspension having the concentration of active compound stated below. The next day, the pots were inoculated with an aqueous spore suspension of Leptosphaeria nodorum. The plants were then placed in a chamber at 20° C. and maximum atmospheric humidity. After 8 days, the leaf blotch on the untreated but infected control plants had developed to such an extent that the degree of infection could be determined visually in %.

SMILES	Leaf infection [%] at 250 ppm [%]
Oc1nc2nccnc2c(O)c1-c1c(F)cc(F)cc1F	10
CC1CCN(c2nc3ncncc3c(Cl)c2-c2c(F)cc(F)cc2F)CC1	3
Fc1cc(F)c(-c2c(Cl)nc3ncncc3c2Cl)c(F)c1 [drawing 26]	3

Tested on: not given
Assay: not given
Settings: not given

SMILES	melting point
Fc1cc(F)c(-c2c(OCc3ccccc3)nc3ncncc3c2Cl)c(F)c1 (hydrate or solvate) [Example 3, 7-Benzyloxy-5-chloro-6-(2,4,6-trifluorophenyl)pyrido[2,3-d]pyrimidine]	146 °C
Oc1nc2ncncc2c(O)c1-c1c(F)cc(F)cc1F [Example 1, 6-(2,4,6-Trifluorophenyl)pyrido[2,3-d]pyrimidine-5,7-diol]	348 °C (dec.)
Fc1cc(F)c(-c2c(Cl)nc3ncncc3c2Cl)c(F)c1 [Example 2, 5,7-Dichloro-6-(2,4,6-trifluorophenyl)pyrido[2,3-d]pyrimidine]	169 °C
Cc1ccc2c(O)c(-c3c(F)cc(F)cc3F)c(C)nc2n1 [Example 5, 2,7-Dimethyl-3-(2,4,6-trifluorophenyl)-[1,8]naphthyridin-4-ol]	315 °C
CC1CCN(c2c(-c3c(F)cc(F)cc3F)c(O)nc3ncncc23)CC1 [Example 8, 5-(4-Methylpiperidin-1-yl)-6-(2,4,6-trifluorophenyl)pyrido[2,3-d]pyrimidin-7-ol]	268 °C
